Test results: patent publication US5516806A, “Ornithine decarboxylase inhibiting cyclic aminooxy compounds” (Ciba-Geigy Corporation, priority 1993, dated 1996)
Structures can show the parent of a compound that is named as a salt. Each block holds one molecule with its values, some of them ahead of it.

Tests used:
[1] = test system: human T24 bladder carcinoma cells; experiment: Inhibition of proliferation of T24 bladder carcinoma cells (methylene blue staining, 5 days); format: cell-based; settings: T-24, 120 h, 5 days incubation, read-out: Inhibition of T24 cell growth IC50
Protocol: The carcinoma cells (1000-1500) are transinoculated into 96-depression microlitre plates and incubated overnight under the conditions mentioned. The test substance is added in serial dilutions on day 1. The plates are incubated under the conditions mentioned for 5 days. During this period of time, the control cultures pass through at least 4 cell divisions. After the incubation, the cells are fixed with 3.3% (weight/volume=w/v) aqueous glutaraldehyde solution, washed with water and dyed with 0.05% (w/v) aqueous methylene blue solution. After washing, the dye is eluted with 3% (w/v) aqueous hydrochloric acid. Thereafter, the optical density (OD) per depression, which is directly proportional to the number of cells, is measured with a photometer (Titertek multiskan) at 665 nm. The IC50 values are calculated with a computer system using the formula [formula]
The IC50 values are defined as that concentration of active ingredient at which the number of cells per depression at the end of the incubation time is only 50% of the number of cells in the control cultures.
(§1) On measurement of the IC50 for inhibition of ornithine decarboxylase (by the abovementioned method of Seely and Pegg with ODC from rat liver (obtained by the method of Hayashi and Kameji, see above)) and of the IC50 for inhibition of proliferation of T24 bladder carcinoma cells as described above, the following IC50 values can be found with the particular compounds mentioned from the examples: […]

[2] = biological target: T1, ornithine decarboxylase (ODC) (Rattus norvegicus, UniProt P09057); experiment: Inhibition of ornithine decarboxylase (method of Seely and Pegg, ODC from rat liver); format: biochemical
T1 construct: from tissue; host or cells: rat liver
T1 sequence (P09057 1-461): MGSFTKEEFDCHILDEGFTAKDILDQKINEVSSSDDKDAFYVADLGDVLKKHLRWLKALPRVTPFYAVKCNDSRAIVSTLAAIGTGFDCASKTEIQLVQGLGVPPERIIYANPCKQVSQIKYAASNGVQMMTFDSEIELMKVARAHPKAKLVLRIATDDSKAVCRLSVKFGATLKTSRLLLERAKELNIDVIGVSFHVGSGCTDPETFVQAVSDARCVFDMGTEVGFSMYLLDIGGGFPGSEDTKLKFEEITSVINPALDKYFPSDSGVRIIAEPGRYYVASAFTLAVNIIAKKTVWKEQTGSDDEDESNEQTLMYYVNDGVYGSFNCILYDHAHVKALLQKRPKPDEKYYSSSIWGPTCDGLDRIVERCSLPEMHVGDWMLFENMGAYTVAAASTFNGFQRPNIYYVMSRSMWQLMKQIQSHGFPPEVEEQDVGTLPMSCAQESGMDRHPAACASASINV
Protocol: White-Tabor (editors): Methods in Enzymology, Volume 94: Polyamines, Academic Press, New York 1983. If ODC from rat liver is used in this test (isolation: Hayashi, S.-I. and Kameji, T., same volume, pages 154-158), IC50 values in the micromolar region, down to about 0.01 μM, preferably between about 0.01 and 10 μM, for example between about 0.02 and about 7.2 μM, are obtained for the compounds of the formula I.IC50 is the concentration of the inhibitor at which the ODC activity is 50% of that of a control without the inhibitor.
as §1

Compound: NC[C@@H]1C[C@@H]1CON (relative stereo) [Example 10, cis-2-Aminooxymethyl-cyclopropylmethylamine dihydrochloride]
IC50 [2]: 470 nM

Compound: NOC[C@H]1C[C@H](N)C1 [Example 7, trans-3-Aminooxymethyl-cyclobutylamine dihydrochloride]
IC50 [2]: 23 nM | IC50 [1]: 4900 nM

Compound: NOCC1CC(N)C1 (stereo not shown) [Example 8, 3-Aminooxymethyl-cyclobutylamine dihydrochloride]
IC50 [2]: 20 nM | IC50 [1]: 4150 nM

Compound: NCC1CC(ON)C1 (stereo not shown) [Example 9, 3-Aminooxy-cyclobutylmethylamine dihydrochlofide]
IC50 [2]: 53 nM

The next lines start with the values.

IC50 [1]: 11000 nM
Compound: NO[C@H]1CCC[C@H](N)C1 (relative stereo) [Example 3, trans-3-Aminooxy-cyclohexylamine dihydrochloride]

IC50 [2]: 220 nM | IC50 [1]: 7500 nM
Compound: NO[C@H]1CC[C@H](N)CC1 [Example 1, trans-4-Aminooxy-cyclohexylamine dihydrochloride]

IC50 [2]: 83 nM
Compound: NOC[C@H]1C[C@@H](N)C1 [Example 6, cis-3-Aminooxymethyl-cyclobutylamine dihydrochlofide]
